{
  "source": "patent US7417023B2",
  "about": "“Targeted delivery of bioaffecting compounds for the treatment of cancer” (Faulk Pharmaceuticals, Inc., priority 2001, dated 2008)",
  "key": {"transferrin receptors": {"system": "transferrin receptors", "test": "regulation of transferrin receptors on drug-sensitive and drug-resistant cancer cells", "type": "cell-based", "conditions": "more on drug-resistant than on drug-sensitive cells"}, "[1]": {"system": "drug-sensitive cancer cells", "test": "viability of drug-sensitive cancer cells", "type": "cell-based", "conditions": "after 48 hours in a given concentration", "excerpt": "(§1) In order to test the relationship between calcium and transferrin receptors, the effect of calcium channel inhibitors on the regulation of transferrin receptors was studied in drug-sensitive and drug-resistant cancer cells. […]. […] The addition of both iron and calcium channel blockers had no effect on cell viability.\n(§2) In light of the above findings, another series of experiments were done to determine whether the restriction of iron by deferoxamine had differential effects on drug-sensitive and drug-resistant cancer cells."}, "[2]": {"system": "drug-resistant cancer cells", "test": "viability of drug-resistant cancer cells", "type": "cell-based", "conditions": "after 48 hours in a given concentration", "excerpt": "as §1, §2"}, "[3]": {"system": "doxorubicin-resistant cancer cells", "conditions": "cited from earlier work"}, "human mesothelioma cells": {"system": "human mesothelioma cells", "conditions": "nude mice, compared to animals treated only with doxorubicin; cited from earlier work"}, "advanced ovarian cancer": {"system": "advanced ovarian cancer", "test": "unpublished clinical study of 23 patients with advanced ovarian cancer", "type": "in vivo, human", "conditions": "equivalent to 1 mg doxorubicin per day, days 15 through 19 of monthly cycles; time between diagnosis and randomization 18 months; vs placebo", "protocol": "There is an unpublished clinical study of 23 patients with advanced ovarian cancer who were randomized into test (12 patients) and placebo (11 patients) groups. The test group received transferrin-doxorubicin conjugates equivalent to 1 mg doxorubicin per day on days 15 through 19 of monthly treatment cycles."}, "[4]": {"system": "leukemic cells in peripheral blood", "conditions": "cited from earlier work"}, "[5]": {"system": "metastatic disease from a sarcoma"}},
  "note": "Read-outs that look alike come from different tables or passages of the source.",
  "data": [
    {"compound": "transferrin-bound iron: iron bound to transferrin", "values": [
      {"measurement": "regulation of transferrin receptors by calcium channel blockers or iron", "setting": "transferrin receptors", "result": "down-regulated receptors much more on drug-resistant cells"}
    ]},
    {"compound": "CC(=O)N(O)CCCCCNC(=O)CCC(=O)N(O)CCCCCNC(=O)CCC(=O)N(O)CCCCCN", "note": "[deferoxamine]", "values": [
      {"measurement": "viability", "setting": "[1]", "result": 93, "unit": "%"},
      {"measurement": "viability (cells alive)", "setting": "[2]", "result": 16, "unit": "%"}
    ]},
    {"compound": "[Cl][Cd][Cl]", "note": "[CdCl2, reference compound]", "values": [
      {"measurement": "regulation of transferrin receptors by calcium channel blockers or iron", "setting": "transferrin receptors", "result": "down-regulation of receptors"}
    ]},
    {"compound": "transferrin-doxorubicin conjugates", "values": [
      {"measurement": "killing of drug-resistant cancer cells", "setting": "[3]", "result": "effectively kill multi-drug resistant cells"},
      {"measurement": "killing of drug-resistant cancer cells", "setting": "[3]; listed as doxorubicin conjugates of transferrin", "result": "kill doxorubicin-resistant cancer cells"},
      {"measurement": "survival", "setting": "human mesothelioma cells", "result": "significantly prolonging life"},
      {"measurement": "Cox regression estimates of survival rates", "setting": "advanced ovarian cancer", "result": "significant difference"},
      {"measurement": "toxic effects", "setting": "[4]; 7 acute leukemia patients, 1 mg/day intravenously for 5 days", "result": "no toxic effects"},
      {"measurement": "decrease of the number of leukemic cells in peripheral blood", "setting": "[4]; 7 patients, within 10-days following therapy", "result": 86, "unit": "%"},
      {"measurement": "extension of disease by bone marrow biopsies", "setting": "[4]; before and after treatment", "result": "no extension of disease"},
      {"measurement": "radiological evidence of tumor", "setting": "[5]; by January", "result": "no radiological evidence of tumor"},
      {"measurement": "metastatic lesions of the lungs", "setting": "[5]; treatment begun August 2000, by November", "result": "substantially cleared of metastatic lesions"}
    ]},
    {"compound": "COc1cccc2c1C(=O)c1c(O)c3c(c(O)c1C2=O)C[C@@](O)(C(=O)CO)C[C@@H]3O[C@H]1C[C@H](N)[C@H](O)[C@H](C)O1", "note": "[doxorubicin, reference compound]", "values": [
      {"measurement": "killing of drug-resistant cancer cells", "setting": "[3]", "result": "not killed by 10-fold higher concentrations"}
    ]}
  ]
}
